Measured values: PubChem BioAssay (NCI)
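Cultured in 96-well plates, cells were exposed to test compound for 48 hours across five concentrations. Definition used: TGI = concentration required for complete inhibition of growth.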

Tests used:
Test in all cases: NCI tumour cell line growth inhibition, 48 h
ACHN renal = tested on: ACHN renal
COLO 205 colon = tested on: COLO 205 colon
MALME-3M melanoma = tested on: MALME-3M melanoma
SF-539 CNS = tested on: SF-539 CNS
NCI-H23 lung = tested on: NCI-H23 lung
SF-295 CNS = tested on: SF-295 CNS
RPMI-8226 leukemia = tested on: RPMI-8226 leukemia
HCT-116 colon = tested on: HCT-116 colon
HOP-62 NSCLC = tested on: HOP-62 NSCLC
HCC-2998 colon = tested on: HCC-2998 colon
OVCAR-4 ovarian = tested on: OVCAR-4 ovarian
UACC-257 melanoma = tested on: UACC-257 melanoma
SK-MEL-28 melanoma = tested on: SK-MEL-28 melanoma
OVCAR-5 ovarian = tested on: OVCAR-5 ovarian
MOLT-4 leukemia = tested on: MOLT-4 leukemia
LOX IMVI melanoma = tested on: LOX IMVI melanoma
786-0 renal = tested on: 786-0 renal
SN12C renal = tested on: SN12C renal
HOP-92 NSCLC = tested on: HOP-92 NSCLC
UACC-62 melanoma = tested on: UACC-62 melanoma
CAKI-1 renal = tested on: CAKI-1 renal
NCI-H460 lung = tested on: NCI-H460 lung
SR leukemia = tested on: SR leukemia
M19-MEL melanoma = tested on: M19-MEL melanoma
M14 melanoma = tested on: M14 melanoma
IGROV1 ovarian = tested on: IGROV1 ovarian
SK-MEL-2 melanoma = tested on: SK-MEL-2 melanoma
KM20L2 colon = tested on: KM20L2 colon
A549 NSCLC = tested on: A549 NSCLC
SNB-75 CNS = tested on: SNB-75 CNS
SW-620 colon = tested on: SW-620 colon
U251 CNS = tested on: U251 CNS
HCT-15 colon = tested on: HCT-15 colon
SNB-78 CNS = tested on: SNB-78 CNS
HL-60(TB) leukemia = tested on: HL-60(TB) leukemia
DMS 273 small cell lung = tested on: DMS 273 small cell lung
LXFL 529 NSCLC = tested on: LXFL 529 NSCLC
UO-31 renal = tested on: UO-31 renal
SNB-19 CNS = tested on: SNB-19 CNS
OVCAR-3 ovarian = tested on: OVCAR-3 ovarian
OVCAR-8 ovarian = tested on: OVCAR-8 ovarian
NCI-H226 lung = tested on: NCI-H226 lung
KM12 colon = tested on: KM12 colon
SF-268 CNS = tested on: SF-268 CNS
K-562 leukemia = tested on: K-562 leukemia
SK-OV-3 ovarian = tested on: SK-OV-3 ovarian
DLD-1 colon = tested on: DLD-1 colon
NCI-H522 lung = tested on: NCI-H522 lung
TK-10 renal = tested on: TK-10 renal
DMS 114 small cell lung = tested on: DMS 114 small cell lung
RXF 393 renal = tested on: RXF 393 renal
CCRF-CEM leukemia = tested on: CCRF-CEM leukemia
EKVX NSCLC = tested on: EKVX NSCLC
SK-MEL-5 melanoma = tested on: SK-MEL-5 melanoma
HT29 colon = tested on: HT29 colon
A498 renal = tested on: A498 renal
XF 498 CNS = tested on: XF 498 CNS

Measured: TGI

Cc1nnc2n1N=C(c1ccc(-c3ccc([N+](=O)[O-])cc3)o1)CS2
not listed: DMS 114 small cell lung | RXF 393 renal | CCRF-CEM leukemia | EKVX NSCLC | SK-MEL-5 melanoma | HT29 colon | A498 renal | XF 498 CNS
> 100 µM: all other assays above

CCP(C)(C)=O
not listed: HCT-116 colon | HOP-92 NSCLC | SR leukemia | HL-60(TB) leukemia | UO-31 renal | NCI-H226 lung | NCI-H522 lung
> 100 µM: all other assays above
